Key:
Assay in all cases: post-emergence greenhouse herbicidal test
Format in all cases: in vivo
Conditions in all cases: application rate 250 g/ha, 100 = complete destruction, 0 = no damage
[1] = tested on: AMARE (Amaranthus retroflexus)
From the text: (§1) The seeds of the test plants were sown separately for each species. For the post-emergence treatment, the test plants were first grown to a height of 3 to 15 cm, depending on the plant habit, and only then treated with the active ingredients which had been suspended or emulsified in water. For this purpose, the test plants were either sown directly and grown in the same containers, or they were first grown separately as seedlings and transplanted into the test containers a few days prior to treatment. Depending on the species, the plants were kept at 10-25° C. or 20-25° C., respectively. The test period extended over 2 to 4 weeks. During this time, the plants were tended, and their response to the individual treatments was evaluated. Evaluation was carried out using a scale from 0 to 100. 100 means no emergence of the plants, or complete destruction of at least the aerial moieties, and 0 means no damage, or normal course of growth. A good herbicidal activity is given at values of at least 70 and a very good herbicidal activity is given at values of at least 85. At an application rate of 250 g/ha the following compounds were tested in post-emergence tests against: ECHCG (Echinocloa crus-galli) AMARE (Amaranthus retroflexus) CHEAL (Chenopodium album)

[2] = tested on: ECHCG (Echinocloa crus-galli)
From the text: as §1

[3] = tested on: CHEAL (Chenopodium album)
From the text: as §1

CN(CC(F)(F)F)C(=O)Nc1cc(Cl)cc(C(=O)Nc2nnnn2C)c1Cl [Example 2, 2,5-dichloro-3-[(2,2,2-trifluoroethyl)(methyl)carbamoylamino]-N-(1-methyltetrazol-5-yl)benzamide]
>80: herbicidal activity against AMARE (scale from 0 to 100) [1] | herbicidal activity against ECHCG (scale from 0 to 100) [2] | herbicidal activity against CHEAL (scale from 0 to 100) [3]

Cn1nnnc1NC(=O)c1cc(Cl)cc(NC(=O)N(C2CC2)C2CC2)c1Cl [Example 1, 2,5-dichloro-3-(dicyclopropylcarbamoylamino)-N-(1-methyltetrazol-5-yl)benzamide]
>80: herbicidal activity against AMARE (scale from 0 to 100) [1] | herbicidal activity against ECHCG (scale from 0 to 100) [2] | herbicidal activity against CHEAL (scale from 0 to 100) [3]

Source: patent US20210179569A1, “BENZAMIDE COMPOUNDS AND THEIR USE AS HERBICIDES II” (BASF SE, priority 2017, published 2021)
